Several values for one entry are separate records, joined by “and”; a condition that tells them apart may be missing. Equal entries are not always repeated. Where two headings read alike, the source gives them in different places.
How the values were obtained:
USP30 = biological target: T1, USP30 (Homo sapiens, UniProt Q70CQ3); assay: biochemical; settings: USP30 10 nM, Ub-rhodamine110
T1 construct: purchased LifeSensors, Inc. (Malvern, PA)

[1] = Metabolic stability in human liver S9 fraction
SARS-CoV-2 PLpro = SARS-CoV-2 PLpro (Severe acute respiratory syndrome coronavirus 2, UniProt P0DTD1); assay: biochemical; settings: PLpro 50 nM, Ub-rhodamine110
USP7 = biological target: T2, USP7 (Homo sapiens, UniProt Q93009); assay: biochemical; settings: USP7 5 nM, Ub-CHOP2
T2 construct: purchased LifeSensors, Inc. (Malvern, PA)

[2] = system: SARS-CoV-2 isolate USA-WA1/2020; assay: microbe, parasite or virus in culture; settings: for inhibition at […]: Severe acute respiratory syndrome coronavirus 2, Vero C1008, read-out: cytopathic effect, % cell viability; for inhibition at 2.08 µM: Severe acute respiratory syndrome coronavirus 2, Vero C1008, read-out: cytopathic effect, % cell viability, [inhibitor] 2.08 uM; for inhibition at 16.65 µM: Severe acute respiratory syndrome coronavirus 2, Vero C1008, read-out: cytopathic effect, % cell viability, [inhibitor] 16.65 uM
[3] = Metabolic stability in rat liver microsomes; settings: Sprague-Dawley
USP4 = biological target: T3, USP4 (Homo sapiens, UniProt Q13107); assay: DUB selectivity assay, USP4 (Ub-rhodamine110); assay type: biochemical
T3 construct: purchased LifeSensors, Inc. (Malvern, PA)
T3 sequence (Q13107 1-963): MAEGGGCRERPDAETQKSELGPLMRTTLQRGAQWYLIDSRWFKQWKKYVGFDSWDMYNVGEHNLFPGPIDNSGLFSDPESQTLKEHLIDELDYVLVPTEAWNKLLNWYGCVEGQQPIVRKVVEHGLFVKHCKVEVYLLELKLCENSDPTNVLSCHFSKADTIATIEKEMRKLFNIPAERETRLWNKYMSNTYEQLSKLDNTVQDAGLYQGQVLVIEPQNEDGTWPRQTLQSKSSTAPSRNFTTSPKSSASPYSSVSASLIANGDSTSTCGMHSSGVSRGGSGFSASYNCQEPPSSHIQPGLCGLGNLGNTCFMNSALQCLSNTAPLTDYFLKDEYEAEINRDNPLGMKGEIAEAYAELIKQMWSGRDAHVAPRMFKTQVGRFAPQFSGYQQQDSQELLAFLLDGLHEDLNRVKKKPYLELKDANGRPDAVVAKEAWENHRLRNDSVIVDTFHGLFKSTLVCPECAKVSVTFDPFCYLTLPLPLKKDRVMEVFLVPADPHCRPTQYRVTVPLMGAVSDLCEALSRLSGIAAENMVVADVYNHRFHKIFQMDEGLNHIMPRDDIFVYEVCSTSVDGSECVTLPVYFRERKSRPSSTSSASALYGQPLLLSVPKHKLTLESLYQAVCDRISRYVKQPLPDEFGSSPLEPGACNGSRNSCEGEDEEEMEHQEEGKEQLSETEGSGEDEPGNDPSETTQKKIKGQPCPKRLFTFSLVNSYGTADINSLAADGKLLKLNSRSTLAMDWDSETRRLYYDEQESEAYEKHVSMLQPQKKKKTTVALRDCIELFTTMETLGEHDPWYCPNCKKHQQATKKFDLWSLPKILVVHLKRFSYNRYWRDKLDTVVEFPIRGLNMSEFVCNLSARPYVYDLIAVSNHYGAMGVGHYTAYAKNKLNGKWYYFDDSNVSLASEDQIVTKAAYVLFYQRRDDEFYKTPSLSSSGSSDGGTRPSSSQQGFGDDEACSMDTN

[4] = Metabolic stability in mouse liver microsomes; settings: CD-1, mouse
USP15 = biological target: T4, USP15 (Homo sapiens, UniProt Q9Y4E8); assay: DUB selectivity assay, USP15 (Ub-rhodamine110); assay type: biochemical
T4 construct: purchased LifeSensors, Inc. (Malvern, PA)
T4 sequence (Q9Y4E8 1-981): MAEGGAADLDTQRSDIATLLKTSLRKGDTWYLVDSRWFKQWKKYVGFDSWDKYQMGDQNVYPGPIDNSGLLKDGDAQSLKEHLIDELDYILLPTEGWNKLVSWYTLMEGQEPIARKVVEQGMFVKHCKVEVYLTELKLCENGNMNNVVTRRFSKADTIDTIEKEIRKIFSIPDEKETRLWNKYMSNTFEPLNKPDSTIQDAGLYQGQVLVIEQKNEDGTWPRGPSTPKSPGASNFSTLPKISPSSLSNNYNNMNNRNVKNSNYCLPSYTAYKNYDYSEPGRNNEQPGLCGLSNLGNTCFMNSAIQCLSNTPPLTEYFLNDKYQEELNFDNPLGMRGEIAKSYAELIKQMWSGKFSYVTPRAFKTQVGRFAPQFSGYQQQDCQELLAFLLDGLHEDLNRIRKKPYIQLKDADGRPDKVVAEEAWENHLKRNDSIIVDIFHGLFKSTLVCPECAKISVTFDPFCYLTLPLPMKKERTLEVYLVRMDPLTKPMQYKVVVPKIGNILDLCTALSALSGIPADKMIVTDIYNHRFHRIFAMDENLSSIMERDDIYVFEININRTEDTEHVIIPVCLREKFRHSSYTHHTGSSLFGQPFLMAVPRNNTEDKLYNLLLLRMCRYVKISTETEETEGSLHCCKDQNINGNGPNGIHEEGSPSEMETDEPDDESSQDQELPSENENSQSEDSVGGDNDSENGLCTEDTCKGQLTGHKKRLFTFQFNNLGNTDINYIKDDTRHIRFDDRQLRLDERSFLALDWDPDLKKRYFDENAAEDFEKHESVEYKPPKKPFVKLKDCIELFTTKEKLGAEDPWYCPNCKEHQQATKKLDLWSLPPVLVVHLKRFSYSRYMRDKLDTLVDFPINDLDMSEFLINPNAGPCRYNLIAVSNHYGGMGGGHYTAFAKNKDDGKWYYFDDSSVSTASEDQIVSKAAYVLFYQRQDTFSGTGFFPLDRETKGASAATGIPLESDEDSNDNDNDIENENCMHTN

[5] = system: SARS-CoV-2 isolate USA-WA1/2020; settings: for inhibition: read-out: cytopathic effect, % cell viability, duplicate wells
[6] = Metabolic stability in rat liver S9 fraction; settings: Sprague-Dawley
[7] = Metabolic stability in human liver microsomes

T2 sequence (Q93009 whole entry): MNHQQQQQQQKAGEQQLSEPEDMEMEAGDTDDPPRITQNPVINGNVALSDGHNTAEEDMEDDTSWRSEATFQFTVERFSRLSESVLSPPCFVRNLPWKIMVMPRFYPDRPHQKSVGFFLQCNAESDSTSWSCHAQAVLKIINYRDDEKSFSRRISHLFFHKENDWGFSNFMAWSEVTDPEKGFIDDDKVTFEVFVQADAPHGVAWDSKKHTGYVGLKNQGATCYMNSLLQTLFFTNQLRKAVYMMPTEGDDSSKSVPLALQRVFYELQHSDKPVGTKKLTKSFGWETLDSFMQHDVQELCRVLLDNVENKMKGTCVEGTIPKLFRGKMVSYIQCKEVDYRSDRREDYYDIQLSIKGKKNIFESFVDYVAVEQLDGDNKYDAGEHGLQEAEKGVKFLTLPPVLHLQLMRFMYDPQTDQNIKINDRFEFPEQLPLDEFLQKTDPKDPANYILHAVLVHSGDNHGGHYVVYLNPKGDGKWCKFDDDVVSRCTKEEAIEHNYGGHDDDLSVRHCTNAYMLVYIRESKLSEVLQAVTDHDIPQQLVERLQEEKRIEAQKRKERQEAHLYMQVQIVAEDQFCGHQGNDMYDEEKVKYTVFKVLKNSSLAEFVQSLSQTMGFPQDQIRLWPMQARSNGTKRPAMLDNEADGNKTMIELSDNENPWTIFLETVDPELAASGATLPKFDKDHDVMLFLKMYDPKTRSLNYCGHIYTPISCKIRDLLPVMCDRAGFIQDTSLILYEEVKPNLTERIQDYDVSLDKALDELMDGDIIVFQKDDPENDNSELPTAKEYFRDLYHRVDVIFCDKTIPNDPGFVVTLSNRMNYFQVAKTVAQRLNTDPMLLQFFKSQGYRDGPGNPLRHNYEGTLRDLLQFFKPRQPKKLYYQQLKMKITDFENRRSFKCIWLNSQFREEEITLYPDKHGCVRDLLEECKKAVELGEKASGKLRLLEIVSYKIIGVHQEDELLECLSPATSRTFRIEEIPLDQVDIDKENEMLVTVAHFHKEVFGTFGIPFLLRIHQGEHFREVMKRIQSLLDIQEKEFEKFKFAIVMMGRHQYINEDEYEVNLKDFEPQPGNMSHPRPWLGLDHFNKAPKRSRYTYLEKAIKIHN
T1 sequence (Q70CQ3 whole entry): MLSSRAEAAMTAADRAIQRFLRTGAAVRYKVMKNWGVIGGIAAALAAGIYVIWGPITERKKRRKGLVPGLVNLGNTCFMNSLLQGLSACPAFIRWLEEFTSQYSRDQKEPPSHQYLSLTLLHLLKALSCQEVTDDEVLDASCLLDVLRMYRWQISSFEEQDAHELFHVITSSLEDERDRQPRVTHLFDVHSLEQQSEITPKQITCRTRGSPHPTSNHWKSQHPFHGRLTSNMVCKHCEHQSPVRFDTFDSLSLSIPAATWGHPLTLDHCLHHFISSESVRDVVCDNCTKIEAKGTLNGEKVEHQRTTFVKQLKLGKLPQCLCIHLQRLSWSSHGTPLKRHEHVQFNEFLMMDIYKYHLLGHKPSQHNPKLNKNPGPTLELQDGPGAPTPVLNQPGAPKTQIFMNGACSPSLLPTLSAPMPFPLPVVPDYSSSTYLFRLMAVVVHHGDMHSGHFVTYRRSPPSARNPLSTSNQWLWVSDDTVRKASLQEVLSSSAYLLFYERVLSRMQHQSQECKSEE

| SMILES | IC50 (USP30) | half-life [1] | microsomal CLint [1] | Hill slope (SARS-CoV-2 PLpro) | IC50 (USP7) | inhibition at […] [2] | inhibition at 2.08 µM ([2]; duplicate wells) | inhibition at 16.65 µM ([2]; duplicate wells) | half-life [3] | microsomal CLint [3] | half-life [4] | microsomal CLint [4] | inhibition ([5]; [inhibitor] 2.08 uM, 2.08 µM) | inhibition ([5]; [inhibitor] 8.33 uM, 8.33 µM) | inhibition ([5]; [inhibitor] 16.65 uM, 16.65 µM) | half-life [6] | microsomal CLint [6] | half-life [7] | microsomal CLint [7] | also measured |
| --- | --- | --- | --- | --- | --- | --- | --- | --- | --- | --- | --- | --- | --- | --- | --- | --- | --- | --- | --- | --- |
| COC(=O)/C=C/C(=O)NNC(=O)CCc1ccccc1C(=O)N[C@H](C)c1cccc2ccccc12 [Compound 7, methyl(R,E)-4-(2-(3-(2-((1-(naphthalen-1 yl)ethyl)carbamoyl)phenyl)propanoyl)hydrazineyl)-4-oxobut-2-enoate] | > 30 µM | 60 min | 38.9 µL/min/mg | 1.06 | > 30 µM | 79.3% and 52.3% | 80.5% | 88.8% | 46 min | 151 µL/min/mg | 13 min | 540 µL/min/mg | 65% | 95.3% and 73.5% | 97% | 31 min | 75.5 µL/min/mg | 50 min | 139 µL/min/mg | viability at […] ([2]; Severe acute respiratory syndrome coronavirus 2, Vero C1008, read-out: % cell viability, cytopathic effect): 79.3% and 52.3%; viability at 2.08 µM ([2]; Severe acute respiratory syndrome coronavirus 2, Vero C1008, read-out: % cell viability, cytopathic effect, 2.08 uM): 80.5%; viability at 16.65 µM ([2]; Severe acute respiratory syndrome coronavirus 2, Vero C1008, read-out: % cell viability, cytopathic effect, 16.65 uM): 88.8%; IC50 (USP4): > 30 µM; IC50 (USP15): > 30 µM; % cell viability, cytopathic effect ([5]; 2.08 uM): 64.9953%; % cell viability, cytopathic effect ([5]; 8.33 uM): 95.2833% and 73.4931%; % cell viability, cytopathic effect ([5]; 16.65 uM): 97.0077% |
| C[C@@H](NC(=O)c1ccccc1CCC(=O)NNC(=O)CCl)c1cccc2ccccc12 [Compound 9, (R)-2-(3-(2-(2-chloroacetyl)hydrazineyl)-3-oxopropyl)-N-(1-(naphthalen-1-yl)ethyl)benzamide] | > 30 µM | 3 min | 689 µL/min/mg | 0.705 | > 30 µM | 17.4% and 13.2% | 10.7% | 19.8% | 13 min | 515 µL/min/mg | 5 min | 1330 µL/min/mg | 12% | 17.9% | 21% | 16 min | 140 µL/min/mg | 7 min | 975 µL/min/mg | IC50 (SARS-CoV-2 PLpro): 1.96 µM; EC50 ([2]; Severe acute respiratory syndrome coronavirus 2, Vero C1008, 48 h, read-out: EC50 (cytopathic effect)): 34 µM; inhibition at 8.33 µM ([2]; Severe acute respiratory syndrome coronavirus 2, Vero C1008, read-out: cytopathic effect, % cell viability, [inhibitor] 8.33 uM, duplicate wells): 26.9%; IC50 (USP4; USP4 10 nM, Ub-rhodamine110, read-out: IC50): > 30 µM; IC50 (USP15; USP15 1 nM, Ub-rhodamine110, read-out: IC50): > 30 µM |
